The values below come from PubChem BioAssay AID1699 (The Scripps Research Institute Molecular Screening Center, 2009).

Active and inactive are the calls of the source.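 Rule for the calls: active = IC50 on parental Ba/F3 cells at or below 10 µM; inactive = IC50 above 10 µM.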

Usually IC50 stands for the concentration at which inhibition is half-maximal.

In the experiment the test system is parental Ba/F3 viability, CellTiter-Glo ATP luminescence. Description: parental Ba/F3 viability inhibition, dose response, counter-screen for JAK2V617F inhibitor project, cell-based, luminescence (AID 1699). A general note: The purpose of a counterscreen is to sort out artefacts and off-target activity.

On to `Cc1cc(SCC(=O)N/N=C/c2ccc(O)c(O)c2)c(C)cc1Br`, for which the IC50 is 10.7 µM (inactive). The result for `C#CCSc1nsc(SCC#C)c1C#N` reads 2.83 µM; that for `O=C(CCl)NC(=O)NC12CC3CC(CC(C3)C1)C2`, 4.37 µM; that for `Oc1ccccc1OCCOc1ccccc1OCCOc1ccccc1O`, 7.12 µM. For `COc1cc2c(cc1OC)-c1cc(N3CCCc4ccccc43)nc(=O)n1CC2` the value was 35.6 µM (inactive); for `CC(C)(C)/C(O)=C/c1nc2cc(Cl)ccc2oc1=O`, 9.55 µM; for `COc1ccc(C2=Nn3c(nnc3C3CCCCC3)SC2)cc1OC`, 7.52 µM. For `CCC(C)[C@@H](NC(=O)OC(C)(C)C)c1nnc(S(=O)(=O)Cc2cccc(C)c2)o1` (stereo not given in full) the value was 4.67 µM; for `COc1ccc(-n2nnnc2SCC(=O)c2ccc(O)c(O)c2)cc1`, 3.34 µM. Consider `Cc1nc2c(=O)n(C)c(=O)n(C)c2nc1Cl`, for which the IC50 was 4.55 µM. The result for `COc1ccccc1-c1nnc(Sc2nc([N+](=O)[O-])nn2C)o1` reads 4.65 µM; that for `Oc1ccc(Cl)cc1N=Cc1sc2ccccc2c1Cl`, 5.94 µM; that for `Cc1ccccc1CS(=O)(=O)c1nnc([C@H](CC(C)C)NC(=O)OC(C)(C)C)o1`, 1.68 µM. With `O=C1C=C(Nc2ccc(O)cc2)C(=O)c2ccccc21`, the IC50 is 7.53 µM. The result for `O=C(Oc1cccc2c(O)cccc12)c1ccccc1` reads 6.51 µM; that for `O=C(C=C=Nc1ccccc1)C(=O)N=C=Cc1ccccc1`, 10.7 µM (inactive).

Regarding `O=C(NC1C=CS(=O)(=O)C1)c1sc2ccccc2c1Cl` (stereo not given), the IC50 was 13.8 µM (inactive). The result for `CC(C)(C)c1cc(NC(=O)CCl)n(-c2ccccc2)n1` reads 3.76 µM; that for `CCCOc1ccc(C(=O)C(CN2CCOCC2)c2ccccc2)cc1` (stereo not given), 2.46 µM; that for `O=C(CCl)N=c1sccn1Cc1cccc2ccccc12`, 1.04 µM. For `COC1(OC)C(/C=C/c2ccc(Cl)cc2)C(C#N)(C#N)C1(OC)OC` (stereo not given), the IC50 was 7.83 µM.

With `CCCCCCN(C(=O)CCl)c1ccccc1`, the IC50 is 2.11 µM. For `Nc1nc(CCl)nc(Nc2ccc3ccccc3c2)n1` the value was 1.08 µM; for `Clc1ccc(-n2nnnc2Sc2ncnc3sccc23)cc1`, 2.91 µM; for `CCCc1nc2ccccc2c(=O)n1/N=C/c1ccc(O)c(O)c1`, 3.62 µM. The result for `O=S(=O)(c1cnc(Cl)c(Br)c1)N1CCc2ccccc21` reads 5.31 µM.

For `O=C(Nc1cccc(NC(=O)c2cccs2)c1)c1ccc([N+](=O)[O-])o1`, the concentration for half-maximal inhibition (IC50) is 3.7 µM.

With `CC1CCN(CCCNC(=O)c2cc3c(Cl)nc4ccccc4c3s2)CC1`, the 50% inhibitory concentration (IC50) is 4.39 µM. The result for `Cc1nn(Cc2ccc(Cl)cc2Cl)c(C)c1NC(=O)CCl` reads 11.4 µM (inactive); that for `Cc1cccc(CS(=O)(=O)c2nnc([C@H](Cc3ccccc3)NC(=O)OC(C)(C)C)o2)c1`, 3.64 µM; that for `CN(C)C(=S)SSC(=S)N(C)C`, 0.223 µM.

For the compound `O=C(Nc1cccc2c1[nH]c1ccccc12)C(F)(F)F`, the IC50 was 13.7 µM (inactive). The result for `O=C(OCn1ncc(Cl)c(Cl)c1=O)c1ccc(F)cc1` reads 1.14 µM; that for `Cc1ccc(NC(=O)C(=Cc2ccc(C(=O)O)cc2)C(=O)Nc2ccc(C)cc2C)c(C)c1`, 5.46 µM; that for `Cc1nc([N+](=O)[O-])c(Br)n1Cc1ccc(Cl)c(Cl)c1`, 8.44 µM. The result for `O=C1C=CCC(/C=C/c2ccccc2)O1` (stereo not given) reads 8.52 µM. For the compound `Oc1ccc(/C=N/N2CCN(C3c4ccccc4-c4ccccc43)CC2)cc1O`, the 50% inhibitory concentration (IC50) is 5.68 µM. The result for `CNC(=O)c1nnsc1S(=O)c1ccc(Cl)cc1` (stereo not given) reads 2.26 µM; that for `CC(C)C1C(C#N)=C(N)Oc2n[nH]c(-c3ccc4ccccc4c3)c21` (stereo not given), 3.56 µM; that for `O=S(=O)(c1cccs1)N1CCN(c2ccc(O)cc2)CC1`, 5.66 µM. For `COc1ccc2nc(C)cc(Sc3nc4ccccc4s3)c2c1` the value was 6.96 µM. For `Cc1ccc(Nc2nc(N)nc(CCl)n2)cc1` the value was 1.42 µM; for `CN(c1ccccc1)S(=O)(=O)c1cccc(C(=O)NCCc2ccc(O)c(O)c2)c1`, > 40 µM (inactive); for `COc1ccccc1N(C(=O)CCl)c1cn(C(C)=O)c2ccccc12`, 4.61 µM. Regarding `COc1ccc(Nc2ccc3c(c2)=NC2(CCCCC2)[N+]=3[O-])cc1`, the 50% inhibitory concentration (IC50) is 1.71 µM. For `CCCn1c(CC)nc([N+](=O)[O-])c1S(=O)(=O)c1ccccc1` the value was 5.9 µM. For `COC(=O)/C=C/c1ccc(OC(=O)OC)c(OC(=O)OC)c1` the value was 10.7 µM (inactive); for `Cc1[nH]c(=O)c(C(=O)/C=C/c2ccccc2F)c2c1CCCC2`, 5.19 µM.

For `COc1ccccc1C(C[N+](=O)[O-])c1c(N)n(C)c(=O)n(C)c1=O` (stereo not given), the IC50 is 6.49 µM. The result for `Cc1cccc(N(Cc2ccccc2)C(=O)CCl)c1` reads 1.63 µM. The result for `Cc1cccc(OCC(=O)Nc2cc(C)ccc2O)c1` reads > 40 µM (inactive). Consider `CCN(CC)S(=O)(=O)c1cccc(-n2c(O)c(C=Nc3ccccc3C(=O)O)c3ccccc3c2=O)c1`, for which the IC50 was > 40 µM (inactive). For `O=S(=O)(c1cnc(Cl)c(Cl)c1)N1CCc2ccccc21` the value was 15.8 µM (inactive); for `CS(=O)(=O)c1nc(-c2ccco2)cc(C(F)(F)F)n1`, 2.28 µM. For `O=C(CCl)N=c1sccn1Cc1ccc(Cl)cc1Cl` the value was 0.653 µM; for `c1ccc(CCNc2nc(-c3ccccn3)nc3ccccc23)cc1`, 3.02 µM. The result for `C/C(=C\c1ccc(N(C)C)cc1)[N+](=O)[O-]` reads 3.5 µM. As to `N#C/C(=C\c1ccc(O)c(O)c1)C(=O)NCCCc1ccccc1`, the 50% inhibitory concentration (IC50) was 6.01 µM. Turning to `Cc1cc2[nH]c3c(c[n+](C)c4ccccc34)c2cc1C`, the concentration for half-maximal inhibition (IC50) was 3.85 µM.

`CCCn1c(CN(C)Cc2ccccc2)nc2c1c(=O)n(C)c(=O)n2C`: the half-inhibitory concentration (IC50) was 8.17 µM. For `Nc1nc(CCl)nc(N(c2ccccc2)c2ccccc2)n1` the value was 1.26 µM; for `O=C1C=CC(=O)N1CCNc1ncc(C(F)(F)F)cc1Cl`, 1.76 µM; for `Cc1c(Cc2ccccc2)c(=O)oc2c(O)c(O)ccc12`, 8.62 µM. `O=c1oc2ccc(Cl)cc2nc1/C=C(\O)c1ccco1`: the IC50 was 8.35 µM. The result for `O=C(CCl)N(C/C=C/c1ccccc1)c1ccc2c(c1)OCCO2` reads 2.51 µM. For `O=C(OCn1ncc(Cl)c(Cl)c1=O)c1ccccc1Cl` the value was 1.2 µM; for `COc1ccc(Nc2nc(N)nc(CCl)n2)cc1`, 2.66 µM. The result for `Cc1ccc(Cn2ccsc2=NC(=O)CCl)cc1` reads 7.76 µM; that for `COc1ccc(-c2cnc3c(c2)CCC3(C#N)C#N)cc1`, 2.07 µM. Consider `CCN1C/C(=C/c2ccc(OC)c(O)c2)C(=O)/C(=C/c2ccc(OC)c(O)c2)C1`, for which the IC50 is 1.5 µM. The result for `COc1ccc(OC)c(NS(=O)(=O)c2ccc(SC)cc2)c1` reads 12.4 µM (inactive); that for `Cc1nc([N+](=O)[O-])c(Br)n1CC(=O)c1ccc2ccccc2c1`, 3.68 µM; that for `c1ccc2c(c1)CSc1sccc1C2=C1CCNCC1`, 10.5 µM (inactive). In the case of `c1ccc2c(CN3CCCCCC3)c[nH]c2c1`, the IC50 was 10.7 µM (inactive).

With `CC1CCCC(NC(=O)NC(=O)CCl)C1C` (stereo not given), the IC50 was 10.6 µM (inactive).
